Our source for the IC50 and inhibition values is patent US5753648A, “Tricyclic benzazepine vasopressin antagonists” (American Cyanamid Company, priority 1996, dated 1998).

Test [1] concerns the target T1, Vasopressin V1 receptor subtype in Human Platelet Membranes (Homo sapiens, UniProt P37288).
T1 construct: Frozen platelet rich plasma (PRP), received from the Hudson Valley Blood Services, are thawed to room temperature; tissue Hudson Valley Blood Services; host or cells: human platelets (platelet rich plasma)
Nature of the test: Binding to Vasopressin V1 receptor subtype in Human Platelet Membranes. To be noted: * V1 receptor subtype in human platelet. As to the method:
Radioligand Binding Experiments with Human Platelet Membranes
Platelet Source: Hudson Valley Blood Services,
Westchester Medical Center, Valhalla, N.Y.
Platelet Membrane Preparation
Frozen platelet rich plasma (PRP), received from the Hudson Valley Blood Services, are thawed to room temperature. The tubes containing the PRP are centrifuged at 16,000×g for 10 min. at 4° C. and the supernatant fluid discarded. The platelets resuspended in an equal volume of 50.0 mM Tris.HCl, pH 7.5 containing 120 mM NaCl and 20.0 mM EDTA. The suspension is recentrifuged at 16,000×g for 10 min. This washing step is repeated one more time. The wash discarded and the lysed pellets homogenized in low ionic strength buffer of Tris.HCl, 5.0 mM, pH 7.5 containing 5.0 mM EDTA. The homogenate is centrifuged at 39,000×g for 10 min. The resulting pellet is resuspended in Tris.HCl buffer, 70.0 mM, pH 7.5 and recentrifuged at 39,000×g for 10 min. The final pellet is resuspended in 50.0 mM Tris.HCl buffer pH 7.4 containing 120 mM NaCl and 5.0 mM KCl to give 1.0-2.0 mg protein per ml of suspension.
Binding to Vasopressin V1 receptor subtype in Human Platelet Membranes
In wells of 96 well format microtiter plate, add 100 μl of 50.0 mM Tris.HCl buffer containing 0.2% BSA and a mixture of protease inhibitors (aprotinin, leupeptin etc.). Then add 20 μl of [^3 H]Ligand (Manning or Arg^8 Vasopressin), to give final concentrations ranging from 0.01 to 10.0 nM. Initiate the binding by adding 80.0 μl of platelet suspension (approx. 100 μg protein). Mix all reagents by pipetting the mixture up and down a few times. Non specific binding is measured in the presence of 1.0 μM of unlabeled ligand (Manning or Arg^8 Vasopressin). Let the mixture stand undisturbed at room temperature for ninety (90) min. Upon this time, rapidly filter off the incubate under vacuum suction over GF/B filters, using a Brandel® Harvester. Determine the radioactivity caught on the filter disks by the addition of liquid scintillant and counting in a liquid scintillator.

Test [2] addresses T2, Human V2 Vasopressin Receptor (Homo sapiens, UniProt P30518).
T2 construct: expressed in transfected cells; host or cells: mouse fibroblast cell line LV-2
In words: Binding to Membranes of Mouse Fibroblast Cell Line (LV-2) Transfected with the cDNA Expressing the Human V2 Vasopressin Receptor. The conditions noted are these: ** LV-2 cells transfected with human V2 receptor cDNA; read-out: V2 IC50 (**human V2 receptor). The procedure:
Binding to Membranes of Mouse Fibroblast Cell Line (LV-2) Transfected with the cDNA Expressing the Human V2 Vasopressin Receptor Membrane Preparation
Flasks of 175 ml capacity, containing attached cells grown to confluence, are cleared of culture medium by aspiration. The flasks containing the attached cells are rinsed with 2×5 ml of phosphate buffered saline (PBS) and the liquid aspirated off each time. Finally, 5 ml of an enzyme free dissociation Hank's based solution (Specialty Media, Inc., Lafayette, N.J.) is added and the flasks are left undisturbed for 2 min. The content of all flasks is poured into a centrifuge tube and the cells pelleted at 300×g for 15 min. The Hank's based solution is aspirated off and the cells homogenized with a polytron at setting #6 for 10 sec in 10.0 mM Tris.HCl buffer, pH 7.4 containing 0.25M sucrose and 1.0 mM EDTA. The homogenate is centrifuged at 1500×g for 10 min to remove ghost membranes. The supernatant fluid is centrifuged at 100,000×g for 60 min to pellet the receptor protein. Upon completion, the pellet is resuspended in a small volume of 50.0 mM Tris.HCl buffer, pH 7.4. The protein content is determined by the Lowry method and the receptor membranes are suspended in 50.0 mM Tris.HCl buffer containing 0.1 mM phenylmethylsulfonylfluoride (PMSF) and 0.2% bovine serum albumin (BSA) to give 2.5 mg receptor protein per ml of suspension.
For binding experiments, the following is added in μl volume to wells of a 96 well format of a microtiter plate: 100.0 μl of 100.0 mM Tris.HCl buffer containing 0.2% heat inactivated BSA, 10.0 mM MgCl2 and a mixture of protease inhibitors: leupeptin, 1.0 mg %; aprotinin, 1.0 mg %; 1,10-phenanthroline, 2.0 mg %; trypsin inhibitor, 10.0 mg % and 0.1 mM PMSF, 20.0 μl of [^3 H] Arginine^8, vasopressin (S.A. 75.0 Ci/mmole) at 0.8 nM and the reaction initiated by the addition of 80.0 μl of tissue membranes (200.0 μg tissue protein). The plates are left undisturbed on the bench top for 120 min to reach equilibrium. Non specific binding is assessed in the presence of 1.0 μm of unlabeled ligand, added in 20 μl volume. For test compounds, these are solubilized in 50% dimethylsulfoxide (DMSO) and added in 20.0 μl volume to a final incubation volume of 200 μl. Upon completion of binding, the content of each well is filtered off, using a Brandel® cell Harvester (Gaithersburg, Md.). The radioactivity trapped on the filter disk by the ligand-receptor complex is assessed by liquid scintillation counting in a Packard LS Counter, with an efficiency of 65% for tritium. The data are analyzed for IC50 values by the LUNDON-2 program for competition (LUNDON SOFTWARE, Ohio).

The target in a further test is T3, oxytocin receptors (Rattus norvegicus, UniProt P70536).
T3 sequence (P70536 1-388): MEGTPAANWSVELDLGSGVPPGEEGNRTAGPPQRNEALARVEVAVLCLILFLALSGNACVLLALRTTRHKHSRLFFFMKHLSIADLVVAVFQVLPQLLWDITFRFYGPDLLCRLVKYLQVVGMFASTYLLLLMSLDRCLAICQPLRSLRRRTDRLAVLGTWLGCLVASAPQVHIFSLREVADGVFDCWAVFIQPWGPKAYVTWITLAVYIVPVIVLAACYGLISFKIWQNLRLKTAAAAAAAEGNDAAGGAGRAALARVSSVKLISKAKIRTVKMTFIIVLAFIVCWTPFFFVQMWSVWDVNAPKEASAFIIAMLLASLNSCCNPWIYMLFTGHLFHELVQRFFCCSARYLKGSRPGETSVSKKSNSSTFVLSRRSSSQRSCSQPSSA
In words: Oxytocin Receptor Binding.

Structures are written as SMILES.

T2 sequence (P30518 whole entry): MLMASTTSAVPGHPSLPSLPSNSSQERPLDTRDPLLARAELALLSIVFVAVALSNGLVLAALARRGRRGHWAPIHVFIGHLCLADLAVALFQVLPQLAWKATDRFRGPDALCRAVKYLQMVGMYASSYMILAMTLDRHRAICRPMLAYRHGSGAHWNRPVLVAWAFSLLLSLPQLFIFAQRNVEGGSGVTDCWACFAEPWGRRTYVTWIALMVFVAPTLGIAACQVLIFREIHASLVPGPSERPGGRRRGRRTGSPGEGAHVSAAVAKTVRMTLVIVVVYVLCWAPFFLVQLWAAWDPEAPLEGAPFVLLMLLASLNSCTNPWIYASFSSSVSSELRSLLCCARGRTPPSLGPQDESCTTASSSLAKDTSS
T1 sequence (P37288 whole entry): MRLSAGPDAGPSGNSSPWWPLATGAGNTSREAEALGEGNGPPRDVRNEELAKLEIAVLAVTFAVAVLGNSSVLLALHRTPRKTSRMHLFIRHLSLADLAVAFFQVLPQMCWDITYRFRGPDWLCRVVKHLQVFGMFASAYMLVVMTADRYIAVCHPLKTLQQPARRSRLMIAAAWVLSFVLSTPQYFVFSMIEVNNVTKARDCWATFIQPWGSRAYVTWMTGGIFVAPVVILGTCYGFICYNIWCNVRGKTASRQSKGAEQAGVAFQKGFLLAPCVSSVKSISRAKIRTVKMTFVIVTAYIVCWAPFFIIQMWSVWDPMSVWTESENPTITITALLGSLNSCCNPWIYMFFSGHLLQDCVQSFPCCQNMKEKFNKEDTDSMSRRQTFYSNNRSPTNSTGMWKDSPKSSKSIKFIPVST

In the case of `Cc1ccc(F)cc1C(=O)Nc1ccc(C(=O)N2Cc3cccn3Cc3ccccc32)cn1` [Example 1, N-[5-(5H-Pyrrolo[2,1-c][1,4]benzodiazetin-10(11H)-ylcarbonyl)-2-pyridinyl]-5-fluoro-2-methylbenzamide], the half-inhibitory concentration (IC50) in test [1] worked out at 20 nM; in test [2], 5 nM; on oxytocin receptors (rat uterine membranes, [3H]oxytocin), 200 nM. At oxytocin receptors (dose 10 μM), this compound returned an inhibition at 10 µM of 92%.
